Experiment [1] addresses Rho kinase 1 (ROCK1) (Homo sapiens, UniProt Q13464). The experiment is described as follows: In vitro Rho kinase inhibitory activity assay (ADP-Glo), ROCK1. To be noted: 10 μM ATP, 25° C., Ki by Cheng-Prusoff. Type of experiment: biochemical. As to the method:
(§1) The effectiveness of compounds of the present invention to inhibit Rho kinase activity can be determined in a 10 μl assay containing 40 mM Tris pH7.5, 20 mM MgCl2 0.1 mg/ml BSA, 50 μM DTT and 2.5 μM peptide substrate (Myelin Basic Protein) using an ADP-Glo kit (Promega). Compounds were dissolved in DMSO such that the final concentration of DMSO was 1% in the assay. All reactions/incubations are performed at 25° C. Compound (2 ul) and either Rho kinase 1 or 2 (4 μl) were mixed and incubated for 30 mins. Reactions were initiated by addition of ATP (4 μl) such that the final concentration of ATP in the assay was 10 μM. After a 1 hour incubation 10 μl of ADP-Glo Reagent was added and after a further 45 minute incubation 20 ul of Kinase Detection Buffer was added and the mixture incubated for a further 30 minutes. The luminescent signal was measured on a luminometer. […] Compounds were tested in dose-response format and the inhibition of kinase activity was calculated at each concentration of compound. To determine the IC50 (concentration of compound required to inhibit 50% of the enzyme activity) data were fit to a plot of % inhibition vs Log10 compound concentration using a sigmoidal fit with a variable slope and fixing the maximum to 100% and the minimum to 0%. To determine the Ki values the Cheng-Prusoff equation was utilized (Ki=IC50/(1+[S]/Km)

Experiment [2] addresses Rho kinase 2 (ROCK2) (Homo sapiens, UniProt O75116). The experiment can be described thus: In vitro Rho kinase inhibitory activity assay (ADP-Glo), ROCK2. To be noted: 10 μM ATP, 25° C., Ki by Cheng-Prusoff. Type of experiment: biochemical. The procedure:
as §1

Some results are limits rather than exact numbers.

Sequence of Rho kinase 2 (ROCK2) (O75116 whole entry): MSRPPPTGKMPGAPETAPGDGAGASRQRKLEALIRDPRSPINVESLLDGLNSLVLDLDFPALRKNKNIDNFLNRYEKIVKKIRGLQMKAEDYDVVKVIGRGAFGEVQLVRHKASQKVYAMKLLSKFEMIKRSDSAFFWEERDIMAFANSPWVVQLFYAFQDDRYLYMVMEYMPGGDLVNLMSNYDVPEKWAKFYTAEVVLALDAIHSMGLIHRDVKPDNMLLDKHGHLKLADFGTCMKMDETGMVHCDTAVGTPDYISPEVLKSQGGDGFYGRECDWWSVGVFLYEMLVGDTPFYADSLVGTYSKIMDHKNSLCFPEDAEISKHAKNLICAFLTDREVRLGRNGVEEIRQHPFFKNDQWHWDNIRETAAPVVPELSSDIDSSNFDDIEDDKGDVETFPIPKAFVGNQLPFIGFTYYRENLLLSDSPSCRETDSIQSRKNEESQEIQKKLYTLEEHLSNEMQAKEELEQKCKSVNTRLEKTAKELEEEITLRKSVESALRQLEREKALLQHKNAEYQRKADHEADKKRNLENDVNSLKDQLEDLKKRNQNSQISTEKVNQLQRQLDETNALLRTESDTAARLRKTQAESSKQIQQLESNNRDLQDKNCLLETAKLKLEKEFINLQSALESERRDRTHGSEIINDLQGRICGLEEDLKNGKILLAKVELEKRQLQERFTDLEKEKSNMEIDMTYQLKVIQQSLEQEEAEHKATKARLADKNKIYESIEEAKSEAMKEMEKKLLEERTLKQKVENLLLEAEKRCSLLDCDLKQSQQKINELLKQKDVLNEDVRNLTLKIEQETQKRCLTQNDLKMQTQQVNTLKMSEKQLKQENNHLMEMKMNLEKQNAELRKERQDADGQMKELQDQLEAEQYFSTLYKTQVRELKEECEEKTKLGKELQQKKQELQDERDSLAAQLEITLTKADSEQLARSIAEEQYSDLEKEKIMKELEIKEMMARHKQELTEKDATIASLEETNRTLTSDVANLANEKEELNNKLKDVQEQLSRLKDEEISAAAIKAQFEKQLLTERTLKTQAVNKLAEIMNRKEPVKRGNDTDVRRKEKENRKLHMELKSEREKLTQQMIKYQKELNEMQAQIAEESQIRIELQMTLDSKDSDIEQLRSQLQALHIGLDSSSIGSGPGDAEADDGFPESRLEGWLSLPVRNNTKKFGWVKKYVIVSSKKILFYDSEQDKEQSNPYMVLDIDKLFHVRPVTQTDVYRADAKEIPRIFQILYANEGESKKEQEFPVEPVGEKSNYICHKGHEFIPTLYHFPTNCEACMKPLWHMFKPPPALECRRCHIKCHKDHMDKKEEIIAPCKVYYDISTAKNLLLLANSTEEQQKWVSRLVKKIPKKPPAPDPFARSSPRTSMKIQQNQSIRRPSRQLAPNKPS
Sequence of Rho kinase 1 (ROCK1) (Q13464 whole entry): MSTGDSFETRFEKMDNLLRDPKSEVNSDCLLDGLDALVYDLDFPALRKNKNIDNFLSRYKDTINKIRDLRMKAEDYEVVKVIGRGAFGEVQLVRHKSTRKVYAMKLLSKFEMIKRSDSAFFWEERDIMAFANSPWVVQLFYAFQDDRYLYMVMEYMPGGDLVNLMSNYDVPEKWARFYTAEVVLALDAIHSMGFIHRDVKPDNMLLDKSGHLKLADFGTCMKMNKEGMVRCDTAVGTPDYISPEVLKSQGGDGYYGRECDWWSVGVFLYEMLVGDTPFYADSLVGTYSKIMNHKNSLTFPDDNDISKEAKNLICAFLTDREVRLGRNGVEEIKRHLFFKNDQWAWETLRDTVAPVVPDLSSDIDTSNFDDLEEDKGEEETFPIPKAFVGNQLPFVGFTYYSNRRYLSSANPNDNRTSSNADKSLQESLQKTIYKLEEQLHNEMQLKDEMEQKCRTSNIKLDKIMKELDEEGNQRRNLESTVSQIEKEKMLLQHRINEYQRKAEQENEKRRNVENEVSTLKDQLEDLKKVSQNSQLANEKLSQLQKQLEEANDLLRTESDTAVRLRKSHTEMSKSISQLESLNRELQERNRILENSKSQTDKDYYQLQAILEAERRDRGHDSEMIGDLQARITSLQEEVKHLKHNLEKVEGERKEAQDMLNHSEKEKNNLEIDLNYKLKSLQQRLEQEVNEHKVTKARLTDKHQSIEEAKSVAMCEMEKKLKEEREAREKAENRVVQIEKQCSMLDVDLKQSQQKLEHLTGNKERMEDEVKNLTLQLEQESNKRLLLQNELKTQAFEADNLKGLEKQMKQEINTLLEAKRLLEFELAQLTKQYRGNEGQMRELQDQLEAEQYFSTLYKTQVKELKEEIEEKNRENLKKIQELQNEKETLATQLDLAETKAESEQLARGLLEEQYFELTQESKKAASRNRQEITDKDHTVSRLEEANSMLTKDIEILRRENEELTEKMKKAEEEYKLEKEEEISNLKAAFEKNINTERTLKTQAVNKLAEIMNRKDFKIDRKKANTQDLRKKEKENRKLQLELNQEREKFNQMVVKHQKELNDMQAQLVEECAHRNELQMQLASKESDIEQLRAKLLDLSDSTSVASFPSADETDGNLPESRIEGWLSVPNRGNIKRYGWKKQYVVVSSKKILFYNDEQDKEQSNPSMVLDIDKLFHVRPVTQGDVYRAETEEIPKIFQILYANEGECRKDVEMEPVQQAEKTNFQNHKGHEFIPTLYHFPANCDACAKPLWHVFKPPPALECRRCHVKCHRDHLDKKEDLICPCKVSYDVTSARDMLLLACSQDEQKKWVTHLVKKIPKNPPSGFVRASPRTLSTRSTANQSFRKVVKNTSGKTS

For the molecule `NC(C(=O)Nc1ccc(C(F)(F)F)cc1)c1ccc(Oc2ccnc3[nH]ccc23)cc1` (stereo not drawn) [Example 10, 2-(4-((1H-pyrrolo[2,3-b]pyridin-4-yl)oxy)phenyl)-2-amino-N-(4-(trifluoromethyl)phenyl)acetamide], the inhibition constant (Ki) in experiment [1] and in experiment [2] was over 30 nM each time.

With `NC(C(=O)NC1CCOCC1)c1ccc(Oc2ccnc3[nH]ccc23)cc1` (stereo not drawn) [Example 13, 2-(4-((1H-pyrrolo[2,3-b]pyridin-4-yl)oxy)phenyl)-2-amino-N-(tetrahydro-2H-pyran-4-yl)acetamide], the Ki in experiment [1] and in experiment [2] was over 30 nM in each case.

With `NCC(Cc1ccc(Oc2ccnc3[nH]ccc23)cc1)C(=O)NC1CCOCC1` (stereo not drawn) [Example 34, 2-(4-((1H-pyrrolo[2,3-b]pyridin-4-yl)oxy)benzyl)-3-amino-N-(tetrahydro-2H-pyran-4-yl)propanamide], the Ki in experiment [1] and in experiment [2] was 3 to 30 nM each time.

Consider `Cc1c[nH]c2nccc(Oc3ccc(CC(CN)C(=O)N4C[C@@H]5C[C@H]4CN5C)cc3F)c12` (single isomer, unassigned) [Example 4A], for which the Ki in experiment [1] and in experiment [2] was 3 to 30 nM in each case.

Consider `COCCCNC(=O)[C@H]1NCC[C@@H]1c1ccc(Oc2ccnc3[nH]cc(C)c23)cc1` (racemic) [Example 21, rac-(2S,3R)-N-(3-methoxypropyl)-3-(4-((3-methyl-1H-pyrrolo[2,3-b]pyridin-4-yl)oxy)phenyl)pyrrolidine-2-carboxamide], for which the values for the Ki in experiment [1] and in experiment [2] were 3 to 30 nM and under 3 nM, respectively.

Consider `Cc1c[nH]c2nccc(Oc3ccc(CC4CNCN(CCCN(C)C)C4=O)cc3F)c12` (stereo not drawn) [Example 41, 3-(3-(dimethylamino)propyl)-5-(3-fluoro-4-((3-methyl-1H-pyrrolo[2,3-b]pyridin-4-yl)oxy)benzyl)tetrahydropyrimidin-4(1H)-one], for which the Ki in experiment [1] and in experiment [2] was 3 to 30 nM in each case.

Take `CNCC(Cc1ccc(Oc2ccnc3[nH]cc(C)c23)cc1)C(=O)N1CCN(Cc2ccccc2)CC1` (stereo not drawn) [Example 36, 1-(4-benzylpiperazin-1-yl)-2-(4-((3-methyl-1H-pyrrolo[2,3-b]pyridin-4-yl)oxy)benzyl)-3-(methylamino)propan-1-one]: the Ki in experiment [1] and in experiment [2] was under 3 nM each time.

Turning to `Cc1c[nH]c2nccc(Oc3ccc([C@H]4CNC[C@@H]4C(=O)NCc4ccccc4)cc3)c12` (single isomer, unassigned) [Example 17A], the inhibition constant (Ki) in experiment [1] and in experiment [2] was under 3 nM in each case.

For the molecule `Cc1c[nH]c2nccc(Oc3ccc(CC(CN)C(=O)N4C[C@@H]5C[C@H]4CN5C)cc3F)c12` (stereo partly drawn) [Example 4, 3-amino-2-(3-fluoro-4-((3-methyl-1H-pyrrolo[2,3-b]pyridin-4-yl)oxy)benzyl)-1-((1S,4S)-5-methyl-2,5-diazabicyclo[2.2.1]heptan-2-yl)propan-1-one], the Ki in experiment [1] and in experiment [2] was under 3 nM in each case.

Consider `Cc1c[nH]c2nccc(Oc3ccc(C4CC(=O)N(CCCN(C)C)CN4)cc3)c12` (stereo not drawn) [Example 38, 3-(3-(dimethylamino)propyl)-6-(4-((3-methyl-1H-pyrrolo[2,3-b]pyridin-4-yl)oxy)phenyl)tetrahydropyrimidin-4(1H)-one], for which the Ki in experiment [1] and in experiment [2] was over 30 nM throughout.

In the case of `COCCCN1CNC(c2ccc(Oc3ccnc4[nH]cc(C)c34)cc2)CC1=O` (stereo not drawn) [Example 39, 3-(3-methoxypropyl)-6-(4-((3-methyl-1H-pyrrolo[2,3-b]pyridin-4-yl)oxy)phenyl)tetrahydropyrimidin-4(1H)-one], the Ki in experiment [1] and in experiment [2] was over 30 nM each time.

`Cc1c[nH]c2nccc(Oc3ccc(CC(CN)C(=O)N4CCN(Cc5ccccc5)CC4)cc3)c12` (stereo not drawn) [Example 30, 3-amino-1-(4-benzylpiperazin-1-yl)-2-(4-((3-methyl-1H-pyrrolo[2,3-b]pyridin-4-yl)oxy)benzyl)propan-1-one]: the Ki in experiment [1] and in experiment [2] was under 3 nM in each case.

The record behind these values is patent US11147812B2, “Tyrosine analogues derivatives as Rho-kinase inhibitors” (Chiesi Farmaceutici S.p.A., priority 2017, dated 2021).
